Assay results: ChEMBL document CHEMBL1201862, “PubChem BioAssay data set” (2004)
The source made the active and inactive calls.

How the values were obtained:
[1] = molecular target: T1, RNA-binding protein pos-1 (Caenorhabditis elegans, UniProt G5EF15); assay: inhibitors of POS-1/mex-3 RNA binding, dose response, biochemical, fluorescence polarization (AID 1964);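 further: purified POS-1 fused to maltose binding protein made in E. coli; potency of compounds blocking POS-1 binding to fluorescent RNA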
T1 sequence (G5EF15 whole entry): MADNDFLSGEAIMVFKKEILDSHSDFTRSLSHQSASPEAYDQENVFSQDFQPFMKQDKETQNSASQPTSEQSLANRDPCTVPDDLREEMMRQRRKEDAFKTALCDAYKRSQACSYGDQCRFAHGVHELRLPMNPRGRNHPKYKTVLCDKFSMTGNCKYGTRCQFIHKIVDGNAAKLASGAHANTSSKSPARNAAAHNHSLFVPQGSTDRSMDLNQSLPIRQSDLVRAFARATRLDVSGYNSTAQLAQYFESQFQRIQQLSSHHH

[2] = molecular target: Tyrosyl-DNA phosphodiesterase 2 (Homo sapiens, UniProt O95551); assay: human TDP2 enzyme inhibitors, dose response, biochemical, epi absorbance, IC50 (AID 743297)
Chain of Tyrosyl-DNA phosphodiesterase 2 (O95551 whole entry): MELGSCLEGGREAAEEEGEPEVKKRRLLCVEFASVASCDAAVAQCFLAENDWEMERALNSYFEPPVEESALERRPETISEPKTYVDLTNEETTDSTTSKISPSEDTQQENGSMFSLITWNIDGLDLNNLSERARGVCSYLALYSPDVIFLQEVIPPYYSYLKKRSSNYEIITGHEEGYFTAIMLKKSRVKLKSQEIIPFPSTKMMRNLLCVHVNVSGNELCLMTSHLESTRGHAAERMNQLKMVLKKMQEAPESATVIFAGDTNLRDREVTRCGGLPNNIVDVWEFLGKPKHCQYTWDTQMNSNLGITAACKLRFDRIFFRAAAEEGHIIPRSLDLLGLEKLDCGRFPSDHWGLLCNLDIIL

[3] = molecular target: T2, Zinc finger protein mex-5 (Caenorhabditis elegans, UniProt Q9XUB2); assay: MEX-5/TCR-2 RNA interaction inhibitors, dose response, biochemical, C. elegans, fluorescence polarization (AID 1960)
T2 sequence (Q9XUB2 whole entry): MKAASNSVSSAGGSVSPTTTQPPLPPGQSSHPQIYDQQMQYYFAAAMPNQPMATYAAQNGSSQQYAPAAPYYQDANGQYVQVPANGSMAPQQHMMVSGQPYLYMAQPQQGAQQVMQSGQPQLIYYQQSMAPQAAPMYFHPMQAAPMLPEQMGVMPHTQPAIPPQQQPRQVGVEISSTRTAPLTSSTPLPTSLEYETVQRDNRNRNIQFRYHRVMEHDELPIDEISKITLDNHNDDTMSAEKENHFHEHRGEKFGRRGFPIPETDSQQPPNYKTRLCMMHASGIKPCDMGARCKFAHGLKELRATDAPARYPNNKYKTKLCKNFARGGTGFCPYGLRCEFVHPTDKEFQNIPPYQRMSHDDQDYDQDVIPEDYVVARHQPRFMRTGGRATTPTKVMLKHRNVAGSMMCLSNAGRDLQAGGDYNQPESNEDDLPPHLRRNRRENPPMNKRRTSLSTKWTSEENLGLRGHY

[4] = molecular target: T3, Oxysterols receptor LXR-beta (Homo sapiens, UniProt P55055); format: functional, cell-based;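 further: Cell-based luminescence dose-response assay of agonist activity at LXR, run as a confirmatory counterscreen to a daf-12 agonist screen; HEK293 cells with Gal4-LXR fusion and GAL4-driven luciferase reporter; agonist potency from rising luciferase signal of a Gal4-LXR reporter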
T3 sequence (P55055 whole entry): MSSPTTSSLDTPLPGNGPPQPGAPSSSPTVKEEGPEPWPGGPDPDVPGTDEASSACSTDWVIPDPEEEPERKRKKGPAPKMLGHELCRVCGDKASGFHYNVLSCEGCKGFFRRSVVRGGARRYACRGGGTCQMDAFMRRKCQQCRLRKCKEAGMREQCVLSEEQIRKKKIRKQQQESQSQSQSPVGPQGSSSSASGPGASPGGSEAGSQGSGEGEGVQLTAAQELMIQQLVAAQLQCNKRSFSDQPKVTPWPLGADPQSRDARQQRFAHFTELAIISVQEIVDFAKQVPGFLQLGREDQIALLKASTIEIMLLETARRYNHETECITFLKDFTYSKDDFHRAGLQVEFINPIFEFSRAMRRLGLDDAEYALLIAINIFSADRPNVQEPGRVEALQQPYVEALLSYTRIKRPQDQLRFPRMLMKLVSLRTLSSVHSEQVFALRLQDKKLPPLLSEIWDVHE

cells [5] = assay: cells
cells [6] = format: functional, cell-based
[7] = molecular target: T4, Trace amine-associated receptor 1 (Homo sapiens, UniProt Q96RJ0); assay: Fluorescence-based cell-based high throughput dose response assay to identify agonists of the human trace amine associated receptor 1 (TAAR1).; format: functional
T4 sequence (Q96RJ0 whole entry): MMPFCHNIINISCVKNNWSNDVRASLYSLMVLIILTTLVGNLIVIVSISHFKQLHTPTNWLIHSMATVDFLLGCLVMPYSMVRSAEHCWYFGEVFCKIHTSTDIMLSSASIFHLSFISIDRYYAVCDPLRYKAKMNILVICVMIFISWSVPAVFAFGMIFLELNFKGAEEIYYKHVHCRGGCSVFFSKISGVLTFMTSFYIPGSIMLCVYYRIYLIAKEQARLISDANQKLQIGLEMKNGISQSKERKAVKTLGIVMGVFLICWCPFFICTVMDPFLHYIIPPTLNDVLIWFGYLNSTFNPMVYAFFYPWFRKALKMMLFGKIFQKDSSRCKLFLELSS

cells [8] = format: functional, cell-based; remark: listed apart in the source
[9] = molecular target: T4, Trace amine-associated receptor 1; assay: Counterscreen for agonists of the human trace amine associated receptor 1 (hTAAR1): Fluorescence-based cell-based high throughput dose response assay to identify hTAAR1 agonist that also desensitize TAAR1 receptor response.; format: functional
[10] = inhibitors of SNCA 5'UTR-driven reporter translation, confirmation, H4 neuroglioma cells, luminescence (AID 1988); format: functional, cell-based
[11] = molecular target: Mitogen-activated protein kinase 10 (Homo sapiens, UniProt P53779); assay: Dose response biochemical screening assay for inhibitors of c-Jun N-Terminal Kinase 3 (JNK3). [Related pubchem assays: 746 ]
Chain of Mitogen-activated protein kinase 10 (P53779 whole entry): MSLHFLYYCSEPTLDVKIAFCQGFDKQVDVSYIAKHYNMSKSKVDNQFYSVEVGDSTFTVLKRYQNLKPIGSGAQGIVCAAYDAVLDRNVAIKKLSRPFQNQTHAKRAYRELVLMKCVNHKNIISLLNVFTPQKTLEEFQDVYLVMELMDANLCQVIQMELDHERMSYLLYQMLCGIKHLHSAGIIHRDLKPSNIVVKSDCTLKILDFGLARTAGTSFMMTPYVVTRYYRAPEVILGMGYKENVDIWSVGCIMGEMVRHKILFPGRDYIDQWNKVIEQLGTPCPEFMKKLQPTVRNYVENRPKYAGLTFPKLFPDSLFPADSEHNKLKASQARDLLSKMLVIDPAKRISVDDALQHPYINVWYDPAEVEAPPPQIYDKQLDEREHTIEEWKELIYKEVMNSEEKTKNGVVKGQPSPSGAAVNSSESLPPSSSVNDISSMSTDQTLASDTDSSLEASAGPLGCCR

[12] = Luminescence Cell-Based Dose Response HTS to Identify Inhibitors of 5'UTR Stem-Loop Driven Prion Protein mRNA Translation in H4 Neuroglioblastoma Cells. [Related pubchem assays: 1827 (Project Summary), 1813 (Primary HTS)]; format: functional
[13] = inhibitors of firefly luciferase expression or activity, dose response, H4 neuroglioma cells, luminescence (AID 1990); format: functional, cell-based
[14] = inhibitors of Vif binding to APOBEC3G peptide, primary screen, biochemical, TR-FRET, GST-Vif 1-94, biotin-A3G peptide, dose response retest (AID 1117319); format: functional;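 further: TR-FRET signal of purified GST-Vif binding a biotinylated A3G peptide; inhibitors lower the FRET signal by blocking Vif and A3G binding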
Albumin = Albumin (Bos taurus, UniProt P02769); assay: Counterscreen for inhibitors of T-cell receptor (TCR)-CD3 interaction: Fluorescence-based biochemical high throughput dose response assay to identify inhibitors of T-cell receptor (TCR)-CD3 interaction using a TAMRA-labeled BSA probe.; format: functional
Chain of Albumin (P02769 whole entry): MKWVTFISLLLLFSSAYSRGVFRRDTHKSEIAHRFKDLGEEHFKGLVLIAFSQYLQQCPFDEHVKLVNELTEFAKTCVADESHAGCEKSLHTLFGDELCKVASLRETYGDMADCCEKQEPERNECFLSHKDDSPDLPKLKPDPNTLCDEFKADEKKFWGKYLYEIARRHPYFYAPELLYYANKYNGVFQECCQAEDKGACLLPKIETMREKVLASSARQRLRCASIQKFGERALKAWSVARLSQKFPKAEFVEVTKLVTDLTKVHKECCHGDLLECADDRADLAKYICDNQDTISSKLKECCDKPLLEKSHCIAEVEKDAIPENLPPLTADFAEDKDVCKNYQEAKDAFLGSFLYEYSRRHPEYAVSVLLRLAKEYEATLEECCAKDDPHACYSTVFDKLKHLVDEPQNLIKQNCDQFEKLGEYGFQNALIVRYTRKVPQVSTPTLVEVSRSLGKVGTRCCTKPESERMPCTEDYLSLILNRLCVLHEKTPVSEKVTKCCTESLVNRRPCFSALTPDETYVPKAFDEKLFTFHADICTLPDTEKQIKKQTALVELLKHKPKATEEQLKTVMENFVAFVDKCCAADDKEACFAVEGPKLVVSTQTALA

[15] = A549 cell cytotoxicity, dose response, cytotoxicity control, plate reader, cherry-pick, antagonist series (AID 743412); format: functional, cell-based
[16] = MC4R antagonists, dose response, counter-screen for LGR2 antagonist project, cell-based, plate reader, cherry pick (AID 743444); format: functional;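 further: transfected HEK 293 cells stimulated with alpha-MSH peptide; potency of inhibitors of the alpha-MSH evoked signal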
[17] = HepG2 cell cytotoxicity, dose response, cytotoxicity control, plate reader, cherry-pick, antagonist series (AID 743416); format: functional, cell-based
[18] = LGR2 antagonists, dose response, cell-based, HEK293, CRE-luciferase reporter, cherry pick, set 2 (AID 743343); format: functional;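 further: transfected cells were stimulated with diluted bursicon conditioned medium after compound addition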

With `CN(C)c1cccc2c1c(NS(=O)(=O)c1cn(C)cn1)nn2C` the EC50 [1] was 89.8 µM (active), the IC50 [2] was 106 µM (inactive) and the EC50 [3] was 32.5 µM (active).
With `Nc1nc2c(-c3ccc(Br)cc3)nnn2c2ccccc12` the EC50 [4] was > 67.6 µM (inactive) and the EC50 (cells [5]) was > 67.6 µM (inactive).
In the case of `O=P1(O)C=C(c2ccccc2)OC(c2ccccc2)=C1`, the EC50 [4] is reported as > 67.5 µM (inactive) and the EC50 (cells [5]) is reported as > 67.5 µM (inactive).
For `O=C(NCCc1cccs1)c1ccc(Cl)cc1`, the EC50 (cells [6]) was > 29.9 µM (inactive), the EC50 [7] was 1.19 µM (active) and the IC50 (cells [8]) was > 29.9 µM (inactive). For the same compound, the IC50 [9] was 3.48 µM (active).
In the case of `CC1=C(C(=O)OC2CCCCCCC2)C(c2ccc(O)cc2)NC(=O)N1` (stereo unspecified), the EC50 [10] is reported as 23.9 µM (active), the IC50 [11] is reported as 41.9 µM (not active) and the EC50 [12] is reported as > 120 µM (not active). The EC50 [13] was 21.1 µM (active).
With `CN(C)c1ccc(/C=C/C#N)cc1` the IC50 [14] was > 100 µM (active).
In the case of `O=C(NNC(=O)c1ccc2ccccc2c1O)NC1CCCCC1`, the IC50 (Albumin) is reported as > 94.1 µM (inactive).
For `Cc1ccc(C(=O)NC2CCCCCCC2)c(Cl)c1`, the AC50 [15] was 25.8 µM (active), the AC50 [16] was 5.7 µM (active) and the AC50 [17] was 25.6 µM (active). For the same compound, the AC50 [18] was 8.04 µM (active).
